pIC50: −log10 of the molar value.
Key:
[1] = molecular target: T1, full-length human PHD1 (Homo sapiens, UniProt Q96KS0); assay: TR-FRET assay, enzymatic IC50 against PHD1; format: biochemical; also: 15 nM PHD1
T1 construct: FLAG (N); purchased Active Motif 81064; host or cells: baculovirus expression system
Source text: PHD1 was expressed in a baculovirus expression system as the full-length protein (NCBI accession number NP_542770.2) with an N-terminal FLAG tag (molecular weight 44.9 kDa).

[2] = molecular target: full-length human PHD2 (Homo sapiens, UniProt Q9GZT9); assay: TR-FRET assay, enzymatic IC50 against PHD2
Chain of full-length human PHD2 (Q9GZT9 whole entry): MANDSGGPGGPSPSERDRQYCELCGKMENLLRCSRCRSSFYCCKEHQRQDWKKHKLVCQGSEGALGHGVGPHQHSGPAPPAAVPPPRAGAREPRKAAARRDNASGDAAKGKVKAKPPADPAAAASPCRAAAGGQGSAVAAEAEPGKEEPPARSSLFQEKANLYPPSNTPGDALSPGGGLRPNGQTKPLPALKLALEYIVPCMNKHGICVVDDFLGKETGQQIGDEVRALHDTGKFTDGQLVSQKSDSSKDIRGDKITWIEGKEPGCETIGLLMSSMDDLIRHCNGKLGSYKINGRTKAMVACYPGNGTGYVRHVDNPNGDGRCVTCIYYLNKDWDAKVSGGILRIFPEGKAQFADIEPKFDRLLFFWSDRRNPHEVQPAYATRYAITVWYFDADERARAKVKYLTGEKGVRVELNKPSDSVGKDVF

[3] = molecular target: T2, full-length human PHD3 (Homo sapiens, UniProt Q9H6Z9); assay: TR-FRET assay, enzymatic IC50 against PHD3; format: biochemical; also: 35 nM PHD3
T2 construct: 6-His (N); purchased Active Motif 81033; host or cells: E. coli
T2 sequence (Q9H6Z9 whole entry): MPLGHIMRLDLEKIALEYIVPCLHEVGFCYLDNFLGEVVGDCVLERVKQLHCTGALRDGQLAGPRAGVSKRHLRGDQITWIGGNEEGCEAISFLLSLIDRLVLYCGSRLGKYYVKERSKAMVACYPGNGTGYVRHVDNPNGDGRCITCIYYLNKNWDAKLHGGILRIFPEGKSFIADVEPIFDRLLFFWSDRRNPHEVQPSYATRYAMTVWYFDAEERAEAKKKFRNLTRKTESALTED
Source text: Recombinant human PHD3 protein (molecular weight 31.1 kDa) was purchased from Active Motif (Carlsbad, Calif., USA). It was expressed in E. coli as the full-length protein (NCBI accession number NP_071356.1) with an N-terminal 6-His tag (catalog #81033, Lot #24417001).

T1 sequence (Q96KS0 whole entry): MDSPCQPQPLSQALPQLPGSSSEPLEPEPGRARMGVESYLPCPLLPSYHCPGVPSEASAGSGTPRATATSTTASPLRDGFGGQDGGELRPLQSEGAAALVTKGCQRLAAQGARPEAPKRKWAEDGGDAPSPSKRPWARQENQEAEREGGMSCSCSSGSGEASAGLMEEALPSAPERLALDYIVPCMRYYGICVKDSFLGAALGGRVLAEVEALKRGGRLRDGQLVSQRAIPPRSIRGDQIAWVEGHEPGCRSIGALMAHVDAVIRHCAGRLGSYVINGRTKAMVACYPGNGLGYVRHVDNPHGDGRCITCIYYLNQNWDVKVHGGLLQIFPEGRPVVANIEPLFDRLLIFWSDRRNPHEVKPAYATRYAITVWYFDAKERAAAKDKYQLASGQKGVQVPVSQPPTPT

| SMILES | pIC50 [1] | pIC50 [2] | pIC50 [3] |
| --- | --- | --- | --- |
| Cc1nn(-c2ccc(S(C)(=O)=O)cn2)c(O)c1-c1ccc(C#N)cn1 [Compound 44, 6-(5-hydroxy-3-methyl-1-(5-(methylsulfonyl)pyridin-2-yl)-1H-pyrazol-4-yl)nicotinonitrile] | 6.00 to 7.00 | 6.00 to 7.00 | 5.00 to 6.00 |
| Cc1nn(-c2ccc(NS(=O)(=O)CC(=O)O)cn2)c(O)c1-c1ccc(C#N)cc1 [Compound 55, 2-(N-(6-(4-(4-cyanophenyl)-5-hydroxy-3-methyl-1H-pyrazol-1-yl)pyridin-3-yl)sulfamoyl)acetic acid] | > 7.00 | > 7.00 | > 7.00 |
| Cc1nn(-c2ccc([S@@](=N)(=O)C3CC3)cn2)c(O)c1-c1ccc(C#N)cc1 [Compound 56, (S)-4-(1-(5-(cyclopropanesulfonimidoyl)pyridin-2-yl)-5-hydroxy-3-methyl-1H-pyrazol-4-yl)benzonitrile] | > 7.00 | > 7.00 | > 7.00 |
| Cc1nn(-c2ccc(S(C)(=O)=NC#N)cn2)c(O)c1-c1ccc(C#N)cc1 (stereo not drawn) [Compound 58, N-((6-(4-(4-cyanophenyl)-5-hydroxy-3-methyl-1H-pyrazol-1-yl)pyridin-3-yl)(methyl)(oxo)-λ^6-sulfaneylidene)cyanamide] | > 7.00 | > 7.00 | 6.00 to 7.00 |

Now from value to compound:

| pIC50 [1] | pIC50 [2] | pIC50 [3] | SMILES |
| --- | --- | --- | --- |
| > 7.00 | > 7.00 | > 7.00 | Cc1nn(-c2ccc(S(=N)(=O)C3CCCC3)cn2)c(O)c1-c1ccc(C#N)cc1 (stereo not drawn) [Compound 35, 4-(1-(5-(cyclopentanesulfonimidoyl)pyridin-2-yl)-5-hydroxy-3-methyl-1H-pyrazol-4-yl)benzonitrile] |
| > 7.00 | > 7.00 | 6.00 to 7.00 | Cc1cc(-n2nc(C)c(-c3ccc(C#N)cc3)c2O)ncc1P(C)(C)=O [Compound 36, 4-(1-(5-(dimethylphosphoryl)-4-methylpyridin-2-yl)-5-hydroxy-3-methyl-1H-pyrazol-4-yl)benzonitrile] |
